The values below come from publication PMC4920072, “Peptide:glycosaminoglycan hybrid hydrogels as an injectable intervention for spinal disc degeneration” (Journal of Materials Chemistry. B, Materials for Biology …, 2016).

Common to all, as to assay type: physicochemical
A short description of data set [1]: Transmission electron microscopy of peptide and peptide:GAG aggregates. The note with it: TEM, uranyl acetate negative stain; for Twist pitch: peptide alone, 130 mM NaCl in D2O. The source says:
We observe that incorporation of GAGs into peptide hydrogels also modifies their microscopic properties. Transmission electron microscopy images reveal pronounced differences in the fibril morphologies (Fig. 3a and Fig. S2, S3, ESI ^‡). Broadly speaking, the changes in gel structure between peptide-only and peptide:GAG gels are very similar. In peptide-only gels, the fibril widths are of the order of 10 nm. This compares to peptide:GAG gels where the fibrils align and cluster together with bundle diameters of the order of 100 nm. […] Transmission electron microscopy of uranyl acetate stained samples were carried out on a Philips CM10/Jeol JEM1400 electron microscope operating at 80/120 kV. Fourier transform infra-red spectra were acquired with a Thermo Scientific Nicolet 6700 FTIR spectrometer. […] TFA has a FTIR band located at 1673 cm-1 and peptides with greater number of arginine and ornithine residues will contain more TFA and therefore a large TFA peak in the FTIR spectra. Transmission electron microscopy, TEM P11-9 and P11-9:GAG samples were prepared in DPBS (Dubeccos phosphate buffered saline, Sigma Aldrich), solution containing 0.04% NaN3, (Sodium azide, Sigma Aldrich, 99%)to prevent bacterial growth. The samples were vortexed for 20 seconds, and then sonicated for 30 minutes. Solution pH was measured and adjusted to 7.4 ± 0.3. Any adjustment of pH, if necessary, was made with μL volumes of 0.1 to 1 mol dm-3 HCL (Hydrochloric acid, Fisher Scientific, analytical reagent grade, 37% wt diluted with purified water), and/or 0.1 to 1 mol dm-3 NaOH (Sodium hydroxide pellets, Fisher […], analytical grade, dissolved in and diluted with purified water). Solution vials were closed, sealed with PTFE tape, and then warmed to approximately 80 °C to maximise peptide solubility. Following warming GAG powder was added to the peptide solutions and the mixture was vortexed to ensure complete mixing The resulting gels were left to equilibrate for approximately four and a half months. For P11-4, P11-8 and P11-12, samples with and without GAG prepared for FTIR were used, these were left to equillibriate for 4 days prior to TEM grid preparation. The gels were then diluted (20 μl of sample in 60 μl D2O) minutes prior to addition to the TEM grids. Glow discharged carbon film coated copper TEM grids (Agar Scientific) were touched onto the peptide and peptide:gag solutions for one minute. The grid was air-dried and then negatively stained with uranyl acetate solution (2% w/v) for 20 seconds and air-dried. TEM images for P11-4, P11-8 and P11-12, samples with and without GAG were obtained using a Jeol JEM1400 transmission electron microscope operating […] voltage. TEM images of […] with and without GAG were obtained using a Philips CM10 electron microscope operating at 80 kV accelerating voltage. Rheometry Peptide and peptide:GAG samples were prepared in DPBS (Dubeccos phosphate buffered saline, Sigma Aldrich), solution containing 0.04% NaN3 (sodium azide, Sigma Aldrich, 99%). The samples were vortexed for 20 seconds, and then sonicated for 30 minutes. Solution pH was measured and adjusted to 7.4 ± 0.3. Any adjustment of pH, if necessary, was made with μL volumes of 0.1 to 1 mol dm-3 HCL (hydrochloric acid, Fisher Scientific, analytical reagent grade, 37% wt diluted with purified water), and/or 0.1 to 1 mol dm-3 NaOH (Sodium hydroxide pellets, Fisher […], analytical grade, dissolved in and diluted with purified water). Solution vials were closed, sealed with PTFE tape, and then warmed to approximately 80 °C to maximise peptide solubility. Following warming GAG powder was added to the peptide solutions and the mixture was vortexed to ensure complete mixing The resulting gels were left to equilibrate at room temperature (P11-4 20 days, P11-8 1.5 months, P11-9 one month and P11-12 two months). Rheometry measurements used a Malvern Kinexus Pro rheometer with a cone-plate geometry (cone angle: 1O, diameter: 50 mm, gap: 0.033 mm). […]

A short description of data set [2]: Visually observed gelation time / physical state of peptide and peptide:GAG samples. Conditions: for Time to gel: peptide concentration = 20 mg/ml, typical gelation times. On the procedure:
Therefore the GAGs must be directly interacting with the peptides via physical bonds to enhance their gelation.
c.) 200 P11-12 1-9 days Wavenumbers (cm-1) Wavenumbers (cm-1) […]
Figure S1. […]
Peptide GAG ratio Time to gel ( peptide concentration = 20 mg/ml)
P11-4 1:2 Seconds-minutes
Table S1. Typical gelation times in 20mg/ml samples
(also on this page, place not known: (cm -1 ) (cm -1 ) (cm -1 ) Estimated monomer (µM) Aromatic 0 / µM Apparent critical relative integral 0.125 mM TMSP concentration to concentration Seconds-minutesP11-4 SecondsP11-8 SecondsP11-9 P11-12) […]
Figure S3. From left to right P11-12, P11-12:PEG (Mw 10k), P11-12:PEG (Mw 100k). 130 mM NaCl in D2O, PEG added at same wt% as 1:10
Pep:GAG ratio. All samples = liquid

Data set [3] is described as follows: 1H NMR of free peptide monomer concentration (apparent critical aggregation concentration c*, equilibration). The note with it: 1H NMR aromatic region integral relative to TMSP, 130 mM NaCl in D2O, pD 7.4, room temperature. As to the method:
NMR characterisation of the free peptide monomer concentration that coexists in equilibrium with the peptide fibrils (and therefore the apparent c*) is found to decrease in the presence of GAG (Fig. 2a and Fig. S1a, ESI ^‡).
The thermodynamics are affected by the presence of GAG.
^1H Nuclear Magnetic Resonance spectra were recorded on a Bruker DPX300 300 MHz spectrometer. Transmission electron microscopy of uranyl acetate stained samples were carried out on a Philips CM10/Jeol JEM1400 electron microscope operating at 80/120 kV. Fourier transform infra-red spectra were acquired with a Thermo Scientific Nicolet 6700 FTIR spectrometer. Rheological measurements used a Malvern Kinexus Pro rheometer with a cone-plate geometry. […]
Peptide and peptide:GAG samples were prepared directly in D2O (Deuterium Oxide, Sigma Aldrich 99.9% D) containing 130 mM NaCl (Sodium Chloride, Fisher Scientific, analytical grade) and […] TMSP (deuterated Sodium 3-(trimethylsilyl)propionate-2,2,3,3-d4, Cambridge Isoptope Labortatories, chemical shift 0 ppm) an internal reference standard. […] Solution pD was measured and adjusted to 7.4 ± 0.3 using the relation pD = pH + 0.4.[1] […]
NMR data were acquired at room temperature with a Bruker DPX 300 spectrometer, operating at 300 MHz (5 mm probe, spectral width 5995 Hz). A presaturation program was used to minimize the water peak, and 1024 scans were measured per spectrum. […]

Where [4] appears, read: peptide alone or peptide:GAG 1:10.
Setting [5] is: peptide alone or peptide:GAG 1:10, 20 mg/ml, 130 mM NaCl in D2O (P11-9 samples in DPBS).
Setting [6] is: Control (peptide only, no GAG), visually observed, room temperature.
[7] abbreviates: peptide : GAG ratio 1:2, visually observed, room temperature.
Where [8] appears, read: peptide : GAG ratio 1:10, visually observed, room temperature.

On to “CH3CO-S-S-R-F-O-W-O-F-E-S-S-NH2 [P11-12]”, for which the Morphology result in data set [1] (setting [4]) is “Twisted fibrils and ribbons”. In addition, the Fibril width in data set [1] (setting [5]) worked out at 10.1 nm. Further, the “Large loose bundle /fibre width” value in data set [1] (setting [5]) is listed as 43.7 ± 11.5 nm. In data set [1] (setting [5]), the Ribbon width is recorded as 5.0 ± 0.8 nm. In addition, in data set [1] (20 mg/ml), the Twist pitch worked out at 114.3 ± 10.3 nm. Also, in data set [2] (130 mM NaCl in D2O, PEG added at same wt% as 1:10 Pep:GAG ratio), the “Physical state of sample (gel or liquid)” value is on record as “liquid”. Besides, the Time to gel entry in data set [2] (setting [6]) was “Minutes”; in data set [2] (setting [7]), “Seconds”; in data set [2] (setting [8]), “Seconds”; in data set [2] (peptide : GAG ratio 1:50, visually observed, room temperature), “Spontaneous”; in data set [2] (peptide : GAG ratio 1:100, visually observed, room temperature) it was “Spontaneous”. For the same substance, the Gelation time entry in data set [2] (when higher GAG ratios were used, visually observed, room temperature) is given as “instantaneously”. For the same substance, the results for the “Time for the monomer concentration to equilibrate” value in data set [3] (GAG present at peptide : GAG ratio of 1 : 5) and in data set [3] (peptide only) were “less than a week” and “within two months”, respectively.
With Ac-SSRFEWEFESS-NH2 [P11-9], in data set [1] (setting [4]), the Morphology result is given as “Ribbons”. For the same substance, the Ribbon width in data set [1] (setting [5]) was 4 ± 1 nm. Moreover, the values for the Time to gel entry in data set [2] (setting [6]), in data set [2] (setting [7]) and in data set [2] (setting [8]) were “Minutes”, “Seconds” and “Seconds”, respectively.
On to CH3CO-Q-Q-R-F-O-W-O-F-E-Q-Q-NH2 [P11-8], for which, in data set [1] (setting [4]), the Morphology entry is listed as “Twisted fibrils”. In data set [1] (setting [5]), this substance showed a Fibril width of 13.2 nm. Also, the Ribbon width in data set [1] (setting [5]) was determined as 5.06 nm. Besides, the Twist pitch in data set [1] (20 mg/ml) is 135.2 ± 22.1 nm. The values for the Time to gel entry in data set [2] (setting [6]), in data set [2] (setting [7]) and in data set [2] (setting [8]) were “days”, “seconds” and “Seconds”, respectively.
Take Ac-QQRFEWEFEQQ-NH2 [P11-4]: the Morphology entry in data set [1] (setting [4]) is on record as “Twisted fibrils”. The same substance came in with a Fibril width in data set [1] (setting [5]) of 14.6 nm. In addition, the Twist pitch in data set [1] (20 mg/ml) came to 76.6 ± 17.1 nm. Further, the results for the Time to gel result in data set [2] (setting [6]), in data set [2] (setting [7]) and in data set [2] (setting [8]) were “Minutes -hours”, “Seconds-minutes” and “Seconds”, respectively.
